Measurements: patent publication US20170152245A1 (National Taiwan University, priority 2015, published 2017)

How the values were obtained:
[1] = system: human platelet suspension; test: Thromboxane B2 formation in human platelet suspension; assay type: cell-based; settings: Homo sapiens, Platelet; collagen-activated platelets; 500 μM; read-out: inhibition of TXB2 formation
Experimental: Human platelet suspension (3.75×10^8/ml) was preincubated in the presence or absence of nstpbp5185 or aspirin for 3 min before the addition of collagen or AA. Six minutes after the addition of agonist, […] indomethacin and 2 mM EDTA were added to the reaction suspension. After centrifugation in an Eppendorf centrifuge at 14,000 g for 2 min, the thromboxane B2 (TXB2), the stable metabolite of TXA2, levels of the supernatant were measured using a competitive enzyme-immuno assay (EIA) kit according to the instructions of the manufacturer.

[2] = system: human platelet-rich plasma; test: Collagen-induced platelet aggregation in human platelet-rich plasma; assay type: cell-based; settings: human PRP, data not shown, read-out: IC50 collagen-induced platelet aggregation in human PRP
Experimental: (§1) Human platelet suspension (PS) was prepared according to the method described previously. Briefly, blood sample, freshly obtained from healthy volunteers who had taken no medications during the preceding 2 weeks, was treated with acid citrate/dextrose (ACD) in a volume ratio of 9:1. After centrifugation at 120 g, 25° C. for 9 min, platelet-rich plasma was transferred into another plastic tube and incubated with heparin (6.4 U/ml) as well as prostaglandin E1 (1 μM). Platelets were spun down by centrifugation at 500 g, 25° C. for 8 min and subsequently washed two times with Tyrode solution (NaH2PO4 0.4 mM; NaCl 136.9 mM; KCl […]; NaHCO3 11.9 mM; CaCl2 2 mM; MgCl2 2.1 mM; glucose 11.1 mM; BSA 3.5 mg/ml; pH 7.35-7.4). The washed platelets were finally suspended in Tyrode's solution and the platelet count was adjusted to 3.75×10^8 platelets/ml. For platelet-rich plasma (PRP) preparation, whole blood was anticoagulated with 1/10 vol of sodium citrate (3.8%, w/v) and centrifuged at 150 g, 25° C. for 9 min.
(§2) Platelet aggregation was measured turbidimetrically with a Lumi-aggregometer (Payton Scientific) at 37° C. under stirring condition (900 rpm). Platelet suspensions were prewarmed to 37° C. for 2 min in a silicone-treated glass cuvette. Nstpbp5185 was added 3 min before the addition of platelet-aggregation inducers. The extent of platelet aggregation was determined by recording the increase of light transmission relative to that of control (maximal aggregation, as 100%) for 6 min after the addition of inducer. The final volume and platelet count for measuring platelet aggregation were 500 μl and 3×10^8/ml, respectively.

[3] = system: rats; test: Gastric damage in rats; assay type: in vivo; settings: 150 μg g^−1 oral, 3 h
Experimental: Rats (Wistar) were fasted overnight then given aspirin at dose of 150 mg/kg or nstpbp5185 at 40 mg/kg. Both drugs were suspended in 1% carboxymethylcellulose. Three hours later, the rats were sacrificed, the stomach excised, and the extent of hemorrhagic erosions scored by an observer unaware of treatment the rats received. Each lesion larger than 2 mm was counted for comparison. The stomach was fixed in formalin (pH, 7.4) and photographed.

[4] = system: mice carotid artery; test: FeCl3-induced thrombus formation in mice carotid artery; assay type: in vivo
Experimental: FIG. 14 The antithrombotic activity of nstpbp5185 in FeCl3-induced thrombi formation in mice carotid artery. (A) Mice were intravenously administered with Heparin (10 or 100 U kg^−1), Aspirin (40 or 80 μg g^−1), or different doses of nstpbp5185 (B). After 5 min, FeCl3 injury was induced by a filter paper saturated with ferric chloride solution (10%). After removal of the paper, carotid blood flow (ml min^−1) was monitored continuously until thromboembolism formation or for 60 min. (C) Mice were orally administered with different doses of Aspirin and nstpbp5185 (D). Both drugs were suspended in 1% CMC. Blood flow monitoring were recorded used analyzed Labchart software (AD instruments). Data are presented as the mean±SEM (n≧3). **P<0.01 and ***P<0.001 as compared with the vehicle control (DMSO).
Mice were intravenously or orally administered with different doses of nstpbp5185.

[5] = system: human platelet suspension; test: Arachidonic acid-induced platelet aggregation in human platelet suspension; assay type: cell-based; settings: AA 200 μM
Experimental: as §1, §2

[6] = system: PGI2 formation; settings: Table III arrows, reference drugs; cited from earlier work
[7] = system: mesenteric venules of mice; test: Fluorescein sodium-induced platelet thrombus formation in mesenteric venules of mice; assay type: in vivo
Experimental: A modification of the method was used. Male ICR mice (12-14 g) were anesthetized with sodium pentobarbital (50 mg/kg, i.p.). […] Five min later, various doses of nstpbp5185 (2 and 4 μg/g), aspirin (150 and 250 μg/g), or DMSO (control) were administered by i.v. through other lateral tail vein. The injected volume of the nstpbp5185, aspirin, or DMSO (control) was smaller than 10 μl. A segment of the small intestine with its mesentery attached was exteriorized through a midline incision on the abdominal wall and placed onto a transparent plastic plate for microscopic observation. Frequent rinsing of the mesentery with warm isotonic saline kept at 37° C. was performed to prevent the mesentery from drying out. Microvessels in the mesentery were observed under transillumination from a halogen lamp. Venules with diameters of 30-40 μm were selected to be irradiated to produce a microthrombus. In the epi-illumination system, light from a 100-W mercury lamp was filtered through a filter (B-2A, Nikon, Tokyo, Japan) with a dichromic mirror (DM 510, Nikon). The filtered light eliminated wavelengths below 520 nm irradiated a microvessel through an objective lens (20×). The area of irradiation was about 100 μm in diameter on the focal plane. Ten minutes after administration of the dye, the irradiation by filtered light and a timer were simultaneously started, and thrombus formation was observed on a TV-monitor. Occlusion time was recorded as the time interval for inducing thrombus formation leading to cessation of blood flow.
After giving 50 μg/g fluorescein sodium, the irradiation of mesenteric venules induced thrombus formation which is consist of activated platelets and fibrin clots. […] In the vehicle-treated group, the average TTO was approximately 143.71±4.99 sec (n=17). The group pre-treated with compound 5185 (10 μg/g), the average TTO value was 208.67±6.99 sec (n=12).

[8] = system: human platelet suspension; test: Collagen-induced platelet aggregation in human platelet suspension; assay type: cell-based; settings: Platelet; collagen 10 μg/ml; washed human platelets; read-out: IC50 collagen-induced platelet aggregation in human PS
Experimental: as §1, §2

[9] = system: Cox-1,-2; settings: Table III arrows, reference drugs; cited from earlier work
[10] = system: human platelet suspension; test: U46619-induced platelet aggregation in human platelet suspension; assay type: cell-based; settings: 500 μM; data not shown

In the case of `CC(=O)Oc1ccccc1C(=O)O` [aspirin, reference compound], the inhibition at 500 µM [1] is reported as 96%, the IC50 [2] is reported as 5.1 ± 0.7 mM and the “gastric lesions (>2 mm)” value [3] is reported as “marked lesions”. For the same molecule, the “time to FeCl3-induced occlusion” value ([4]; heparin 10 U kg^−1 or aspirin 40 μg g^−1 i.v.) was “about 10 min”, the FeCl3-induced thrombus formation ([4]; heparin 100 U kg^−1 or aspirin 80 μg g^−1 i.v.) was “blocked” and the IC50 [5] was 313 ± 18.7 µM. The PGI2 formation [6] was “↓”, the occlusion time ([7]; 250 μg g^−1 i.v.) was 175.5 ± 25.3 s and the “occlusion time at return to control, within 60 min” value ([7]; 250 μg g^−1 i.v.) was 82.6 ± 9.4 s. The “occlusion time within 40 min after administration” value ([7]; 250 μg g^−1 i.v.) was 155.0 ± 7.1 s, the “time until occlusion time returned to the control value” ([7]; 250 μg g^−1 i.v.) was at most 60 min and the “change of occlusion time” value ([7]; low dose (below 250 μg g^−1)) was “did not significantly change”. The IC50 [8] was about 190 µM, the “Cox-1,-2” value [9] was “↓” and the “effect on U46619-induced platelet aggregation” value [10] was “no effect”.
